Assay results from patent publication US20040157793A1, “Modified nucleosides as antiviral agents” (priority 2002, published 2004).
Where two headings read alike, the source gives them in different places.

Tests used:
[1] = system: HBV (wild-type virus: rtM204) in HepAD38 cells; assay: Suppression of HBV production in HepAD38 cells, viral DNA in supernatant by Q-PCR; assay type: cell-based; conditions: HepAD38 cells, 5-day incubation
Text: The HepAD38 (wild-type virus: rtM204) and HepAD79 (3TC-resistant virus: rtV204) (Stuyver L. J. et al. 2001, Hepatol., 33:751-757) cell lines replicate HBV under conditions that can be regulated with tetracycline (King R. W. et al. 2000, Methods in Molecular Medicine, Vol 24: Antiviral Methods and Protocols, 43-50 (eds: D. Kinchington & R. F. Schinazi), Humana Press Inc, Totowa, N.J.); Ladner, et al. 1997, Antimicrob. Agents Chemother., 41:1715-1720; Ladner S. K., et al. 1998a. Antivir. Chem. Chemother., 9:65-72; Ladner S. K., et al. 1998b. Antimicrob. Agents Chemother., 42:2128-31). In the presence of this drug, the cell supernatant is virtually free of viral DNA, but upon the removal of tetracycline from the culture medium, these cells secrete virus-like particle into the supernatant.
(§1) HepAD38 and HepAD79 cells were seeded at 5×10^4 cells/well in a 96-well plate in seeding medium (DMEM/F12+10% FBS, 50 μg/ml penicillin, 50 μg/ml streptomycin, 100 μg/ml kanamycin, 400 μg/ml G418, and 0.3 μg/ml tetracycline) and incubated for 2 days at 37° C. in a 5% CO2, humidified atmosphere. The seeding media was removed, and cells were washed 3 times with PBS. Cells were then incubated with 200 μL assay medium (DMEM/F12+10% FBS+P/S/K) containing either (i) no compound, (ii) test compound, or (iii) control drugs at 10 μM. After an additional 5-day (HepAD38) or 13-day incubation (HepAD79, with renewal of the culture media at day 7), the cell supernatant was collected and stored at −70° C. until HBV DNA was quantified.
HBV DNA was extracted from supernatant using QiaAmp DNA blood Mini kit (Qiagen) and nucleic acids eluted in 200 μl Viral DNA was detected by quantitative PCR (Q-PCR). The TaqMan probe and primers were designed using the Primer Express software (Applied Biosystems) and cover highly conserved sequences complementary to the DNA sequences present in HBsAg. A total of 5 μl DNA was amplified using reagents and conditions as described by the manufacturer (Applied Biosystems). […]

[2] = system: HBV (3TC-resistant virus: rtV204) in HepAD79 cells; assay: microbe, parasite or virus in culture; assay type: cell-based
Procedure: as §1
HBV DNA was extracted from supernatant using QiaAmp DNA blood Mini kit (Qiagen) and nucleic acids eluted in 200 μl Viral DNA was detected by quantitative PCR (Q-PCR). The TaqMan probe and primers were designed using the Primer Express software (Applied Biosystems) and cover highly conserved sequences complementary to the DNA sequences present in HBsAg. A total of 5 μl DNA was amplified using reagents and conditions as described by the manufacturer (Applied Biosystems).
Subsequently, the time course of viral induction in HepAD79 cells over a 13-day incubation period was investigated.
Therefore, the DNA extracted from the cell supernatant was also amplified by Q-PCR for the presence of cellular DNA (the rRNA gene).

HepG2 cells = assay: Cell growth of HepG2 cells during 14-day treatment; assay type: cell-based, human; conditions: HepG2, up to 100 μM, 14 days
Procedure: In addition, these compounds were also tested in the HepG2 cell line (14-day treatment, 100 μM) for their ability to reduce mitochondrial DNA levels (using a newly designed normalized Q-PCR protocol as described in Stuyver, L. J., et al. 2002, Antimicrob. Agents Chemother., 46:3854-3860) or lactic acid production.

[3] = system: HepG2 cells (mitochondrial COXII DNA); conditions: for Average ΔCt ± s.d. MitCoxII / Average ΔCt ± s.d. rDNA / Average ΔΔCt ± s.d. MitCOXII-rDNA / Fold difference in COXII DNA levels normalized for rDNA (range) relative to control: HepG2, 14-day treatment
M522V virus (rtV204 HBV) = conditions: Ono S. K. et al.; cited from earlier work

## Nc1nc(=O)n([C@@H]2C=C[C@H](CO)O2)cc1F [L-d4FC]
[1]; 10 μM, HBV DNA in supernatant
  HepAD38 log10 inhibition at 10 μM: 2.56 ± 0.44 log10
[1]; concentration reducing viral load by 90%, unit printed in text only, read-out: HepAD38 EC90
  EC90: 0.05 ± 0.02 µM
[2]; HepAD79 cells, 10 μM, 13-day incubation, HBV DNA in supernatant
  HepAD79 log10 inhibition at 10 μM: 1.64 ± 0.37 log10
[2]; HepAD79 cells, 13-day incubation, read-out: HepAD79 EC90
  EC90: 0.88 µM
[2]; fold increase, EC90 HepAD79 over EC90 HepAD38
  FI EC90 AD79/EC90 AD38: 17.6
HepG2 cells
  effect on cell growth (in words): reduced the cell growth significantly
[3]; 10 μM
  Average ΔCt ± s.d. MitCoxII: 2.72 ± 0.27
  Average ΔCt ± s.d. rDNA: 3.89 ± 0.23
  Average ΔΔCt ± s.d. MitCOXII-rDNA: −1.17 ± 0.47
  Fold difference in COXII DNA levels normalized for rDNA (range) relative to control: 2.25 (1.62-3.12)
[3]; 100 μM
  Average ΔCt ± s.d. MitCoxII: 6.52 ± 0.14
  Average ΔCt ± s.d. rDNA: 8.76 ± 0.47
  Average ΔΔCt ± s.d. MitCOXII-rDNA: 2.24 ± 0.58
  Fold difference in COXII DNA levels normalized for rDNA (range) relative to control: 4.72 (3.16-7.04)
[3]; HepG2, up to 100 μM, 14 days
  effect on mitochondrial DNA levels (in words): did not specifically affect the mitochondrial DNA levels
M522V virus (rtV204 HBV)
  EC50: 1.8 µM
